Data from patent US9603980B2, “Layer-by-layer stereocomplexed polymers as drug depot carriers or coatings in medical devices” (Cardinal Health Switzerland 515 GmbH, priority 2008, dated 2017).
pIC50: −log10 of the molar value.

Columns and labels:
[1] = system: human smooth muscle cells; experiment: Cladribine Example: PDGF-stimulated cell proliferation, cell count on day six; type: cell-based; details: from IC50 values
Method: To assess the ability of cladribine to prevent cell proliferation, human smooth muscle or endothelial cells (Clonetics, Walkersville, Md.) were seeded at a density of 2000 cells/cm^2 (approximately 3600 cells/well) into each well of 12-well plates and cultured with 1.5 ml of growth medium containing five percent fetal calf serum (FCS). After twenty-four hours, the growth medium was changed and fresh medium containing 10 ng/ml platelet-derived growth factor AB (PDGF AB; LIFE Technologies), as well as various concentrations of cladribine (0.001-10,000 nM) were added with triplicate wells. Medium was replaced with fresh cladribine-containing medium after three days. On day six, cells were detached by trypsinization to yield a cell suspension, lightly centrifuged to pellet and then counted manually using a Neubauer hemocytometer system. Cell viability was assessed by trypan blue exclusion.

[2] = system: human coronary artery smooth muscle cells; experiment: Anti-proliferative activity in non-synchronized cultured cells stimulated with two percent fetal bovine serum; type: cell-based
Text: The multiple curves represent various concentrations of mycophenolic acid ranging from zero to one thousand nanomolar concentrations.
FIG. 58 illustrates, in graphical format, the anti-proliferative activity of cladribine in non-synchronized cultured human coronary artery smooth muscle cells stimulated with two percent fetal bovine serum.
The multiple curves represent various concentrations of cladribine ranging from zero to nine hundred nanomolar concentrations.

[3] = In vivo release kinetics from stent coatings, porcine pharmacokinetics studies
Text: The topcoat is two hundred micro grams.
(§1) The basecoat is applied to Bx Velocity® stents and implanted into Yorkshire pigs.
as §1

[4] = system: human coronary artery smooth muscle cells; experiment: Anti-proliferative activity in synchronized cultured cells stimulated with two percent fetal bovine serum; type: cell-based
Text: (§2) The multiple curves represent various concentrations of topotecan ranging from zero to three hundred nanomolar concentrations.
(§3) The multiple curves represent various concentrations of etoposide ranging from zero to eight hundred nanomolar concentrations.
The multiple curves represent various concentrations of Panzem® ranging from zero to 100 micromolar concentrations.

[5] = system: cell viability; experiment: Cell viability assay; type: cell-based
Text: as §2, §3

[6] = system: human coronary artery smooth muscle cell; experiment: MTS cytotoxicity assay; type: cell-based; details: concentrations up to 30,000.00 nanomolar (6.6 to 30,000.00 nanomolar tested)
Text: Typically, a control is utilized to determine baseline toxicity.

[7] = Porcine drug elution PK study of dual drug eluting coating; type: in vivo; details: after eight (8) days of implantation, single-layer coating of FIG. 83
Text: Another critical parameter for the performance of the thrombus resistance of a device coated with cilostazol is the duration of the drug release from the coating. This is of particular significance in the two weeks after device implantation. In the porcine drug elution PK studies of the dual drug eluting coating, both cilostazol and sirolius were slowly released from the coating, resulting in a sustained drug release profile. The purpose of the porcine PK study is to assess the local pharmacokinetics of a drug eluting stent at a given implantation time. Normally three stents are implanted in three different coronary arteries in a pig for a given time point and then retrieved for total drug recovery analysis. The stents are retrieved at predetermined time points; namely, 1, 3 and 8 days. The stents are extracted and the total amount of drug remaining on the stents is determined by analysis utilizing HPLC (high performance liquid chromatography) for total drug amount. The difference between the original amount of drug on the stent and the amount of drug retrieved at a given time represents the amount of drug released in that period. The continuous release of drug into surrounding arterial tissue is what prevents the neointimal growth and restenosis in the coronary artery. A normal plot represents the percentage of total drug released (%, y-axis) vs. time of implantation (day, x-axis). […]

[8] = In vitro release of sirolimus and cilostazol from single-layer coating; type: physicochemical; details: single-layer coating of FIG. 83
[9] = Drug concentration in liquid formulations (liquid chromatography / HPLC assay); type: physicochemical
Text: In accordance with exemplary embodiments of the present invention, a series of liquid formulations were developed for the local or regional delivery of water insoluble compounds such as sirolimus and its analogs, including CCI-779, ABT-578 and everolimus, through weeping balloons and catheter injection needles. […] These liquid formulations increase the apparent solubility of the pharmacologically active but water insoluble compounds by two to four orders of magnitude as compared to the solubility limits of the compounds in water. These liquid formulations rely on the use of a very small amount of organic solvents such as Ethanol (typically less than two percent) and a larger amount of safe amphiphilic (of or relating to a molecule having a polar, water soluble group attached to a non-polar, water insoluble […]) excipients such as polyethylene glycol (PEG 200, PEG 400) and vitamin E TPGS to enhance the solubility of the compounds. These liquid formulations of highly water insoluble compounds are stable and readily flowable at room temperature. Certain excipients, such as Vitamin E TPGS and BHT may be utilized to enhance the storage stability of sirolimus compounds through their anti-oxidation properties. […]

[10] = system: human coronary artery smooth muscle cells; experiment: Antiproliferative effects of PX867 on cultured cells; type: cell-based
Text: A PI3 kinase inhibitor can affect restinosis when administered by local or systemic delivery alone or in combination with sirolimus. FIGS. 87 and 88 illustrate the antiproliferative effects of PX867 on cultured human coronary artery smooth muscle cells alone (FIG. 87) or in combination with sirolimus (FIG. 88). […] Curve 8702 illustrates the percent inhibition for various concentrations. In FIG. 88, the six curves 8802, 8804, 8806, 8808, 8810 and 8812 represent various concentrations of PX867 with various concentrations of sirolimus. […] More specifically, curve 8812 illustrates the percent inhibition for a 240 nM PX-867 concentration. […] This may be compared to curve 8804 which represents a 15 nM PX-867 concentration. As one can see, the percent inhibition increases as the concentration of sirolimus increases. Accordingly, a potent PI3 kinase inhibitor, such as PX-867, can improve the inhibition of coronary artery smooth muscle cell proliferation either as a stand alone treatment or via combination with another restenotic agent, such as sirolimus.

[11] = system: human coronary artery smooth muscle cell; experiment: Inhibition of coronary artery smooth muscle cell proliferation by trichostatin A, in vitro cell culture study; type: cell-based
Text: FIG. 51 is a graph of the inhibition of coronary artery smooth muscle cells by trichostatin A in a cell culture study.

[12] = system: tumor cell lines; details: cited from earlier work

## Nc1nc(Cl)nc2c1ncn2[C@H]1C[C@H](O)[C@@H](CO)O1 [Cladribine, 2-chlorodeoxyadenosine]
[1]
  potency as inhibitor of smooth muscle cells relative to endothelial cells: approximately twice
[2]; cladribine 56.25 to 900 nanomolar
  effect of addition to cells treated with rapamycin: increases the percent inhibition of rapamycin alone
[2]; non-synchronized cells, two percent fetal bovine serum
  inhibition of human coronary artery smooth muscle cell proliferation: completely inhibits
[3]; Yorkshire pigs, EVA/BMA basecoat, BMA topcoat, Bx Velocity stents
  in vivo elution from polymeric stent coating, compared with co-loaded drug: elutes more rapidly than rapamycin

## CC[C@@]1(O)C(=O)OCc2c1cc1n(c2=O)Cc2cc3c(CN(C)C)c(O)ccc3nc2-1 [Topotecan, topotecan]
[4]; topotecan 18.8 to 300 nanomolar
  effect of addition to cells treated with rapamycin: increases the percent inhibition of rapamycin alone
[5]; concentrations up to one micromolar
  cytotoxicity: non-cytotoxic

## COc1cc2c(cc1O)CC[C@@H]1[C@@H]2CC[C@]2(C)[C@@H](O)CC[C@@H]12 [Panzem®, 2-methoxyestradiol]
[4]; Panzem 0.813 to 100 micromolar
  effect of addition to cells treated with rapamycin: increases the percent of inhibition of rapamycin alone
[4]; agent alone
  inhibition of human coronary artery smooth muscle cell proliferation in vitro: extremely effective inhibitor
[6]
  human coronary artery smooth muscle cell survival: do not reduce human coronary artery smooth muscle cell survival

## COc1c(C)c2c(c(O)c1C/C=C(\C)CCC(=O)O)C(=O)OC2 [mycophenolic acid]
[2]; mycophenolic acid zero to one thousand nanomolar, leftward and upward shift
  effect of addition on the anti-proliferative rapamycin dose response curve: potentiates the anti-proliferative activity of rapamycin
[3]; porcine, EVA/BMA basecoat with rapamycin and mycophenolic acid 180 μg each, with or without BMA topcoat
  in vivo release from basecoat, compared with co-loaded drug: elutes more completely over a shorter duration than the rapamycin

## O=C1CCc2cc(OCCCCc3nnnn3C3CCCCC3)ccc2N1 [cilostazol, 6[4-(1-cyclohexyl-1H-tetrazol-5-yl)-butoxy]-3,4-dihydro-2-(1H)-quinolinone]
[7]
  drug remaining in the drug coating: ~80%
[8]
  in vitro release: ~35%

## CO[C@H]1C[C@@H]2CC[C@@H](C)[C@@](O)(O2)C(=O)C(=O)N2CCCC[C@H]2C(=O)O[C@H]([C@H](C)C[C@@H]2CC[C@@H](O)[C@H](OC)C2)CC(=O)[C@H](C)/C=C(\C)[C@@H](O)[C@@H](OC)C(=O)[C@H](C)C[C@H](C)/C=C/C=C/C=C/1C [rapamycin]
[3]; porcine, PVDF basecoat with PVDF topcoat
  in vivo release rate, compared with co-loaded drug: slower release rate than that of mycophenolic acid
[7]
  drug remaining in the drug coating: ~80%
[9]; 4 mg/ml formulation
  concentration relative to the solubility of sirolimus in water: four hundred to about one thousand

## COC[C@H]1OC(=O)/C(=C\N2CCCC2)C2=C(O)C(=O)C3=C([C@H](OC(C)=O)C[C@]4(C)C(=O)CC[C@@H]34)[C@]21C [PX-867]
[10]; PX867 alone, concentration of about 10^−6 (unit not given)
  inhibition of coronary artery smooth muscle cell proliferation: one hundred
[10]; PX-867 15 to 240 nM with various concentrations of sirolimus
  combination with sirolimus: strong synergistic effect

## CC(/C=C/C(=O)NO)=C\[C@@H](C)C(=O)c1ccc(N(C)C)cc1 [trichostatin A]
[11]
  inhibition of human coronary artery smooth muscle cell proliferation: completely inhibit
[11]; read-out: anti-proliferative IC50
  pIC50: ~8.22
[12]
  anti-proliferative IC50's: low nM range

## COc1cc([C@@H]2c3cc4c(cc3[C@@H](O[C@@H]3O[C@@H]5CO[C@@H](C)O[C@H]5[C@H](O)[C@H]3O)[C@H]3COC(=O)[C@H]23)OCO4)cc(OC)c1O [Etoposide, etoposide]
[4]; etoposide 255.7 to eight-hundred nanomolar
  effect of addition to cells treated with rapamycin: increases the percent inhibition of rapamycin alone
[5]; concentrations up to ten micromolar
  cytotoxicity: non-cytotoxic

## CO[C@H]1C[C@@H]2CC[C@@H](C)[C@@](O)(O2)C(=O)C(=O)N2CCCC[C@H]2C(=O)O[C@H]([C@H](C)C[C@@H]2CC[C@@H](OC(=O)C(C)(CO)CO)[C@H](OC)C2)CC(=O)[C@H](C)/C=C(\C)[C@@H](O)[C@@H](OC)C(=O)[C@H](C)C[C@H](C)/C=C/C=C/C=C/1C [CCI-779]
[9]; ethanol less than two percent, Vitamin E TPGS, water
  concentration in the final solution (HPLC assay): 15000 µg/mL
